Two compounds from US20260207537A1, “PHARMACEUTICAL COMPOSITION FOR PREVENTION AND TREATMENT OF AORTIC ANEURYSM, AND PROCESSED FOOD” (priority 2020, published 2026) can be followed below.

Data set [1] relates to abdominal aortic aneurysm. The data set is described as follows: Abdominal aortic aneurysm induction model, preventive forced administration (Examples 1 and 2). The class given is in vivo, rat. The note with it: for Survival rate: Example 2, FIG. 1; for Diameter of the aorta in the abdominal aortic aneurysm induction part: Example 2, FIG. 2, after completion of the test, control group about 4 MM; for Rupture rate of abdominal aortic aneurysm: among rats with observed aneurysm, control group 28.6; for Rupture confirmed (abdominal aortic aneurysm) / Rupture not confirmed (abdominal aortic aneurysm): number of rats among rats with observed aneurysm. How it is done:
SD-male rats of 4 weeks old (70 to 90 G) were used. Eighteen rats and eight rats were prepared as a control group and a medium chain fatty acid administration group, respectively.
Upon arrival, all rats were preliminarily fed normal feed without additional supplements for one week. Then, the medium chain fatty acid administration group was fed normal feed and forcibly administered with high-content neutral fats (decanoic acid occupied 98% of constituent fatty acids) in an amount of 1,145 MG/KG body-weight/day. The control group was fed normal feed and forcibly administered with water in an amount of 1,145 MG/KG body-weight/day.
In this test, the medium chain fatty acid was fed in the form of tricaprin. Tricaprin is a substance in which decanoic acid (C10), a linear saturated fatty acid having 10 carbon atoms, is bonded to glycerol. Thus, the high-content neutral fats are medium chain fatty acids of the present invention.
From the second week after the arrival, all rats were fed high-fat feed. Then, the medium chain fatty acid administration group was forcibly administered with the high-content neutral fats in an amount of 1,145 MG/KG body-weight/day in addition to the high-fat feed. Furthermore, the control group was forcibly administered with water in an amount of 1,145 MG/KG body-weight/day in addition to the high-fat feed.
Three weeks after the arrival, an abdominal aortic aneurysm induction treatment was performed. In the abdominal aortic aneurysm induction treatment, a catheter is inserted in the rat abdominal aorta and the inserted catheter is ligated with the abdominal aorta. The treatment was performed according to the method disclosed in PTL 3.
After that, for the next four weeks, the control group had been fed the high-fat feed and forcibly administered with water in an amount of 1,145 MG/KG body-weight/day. Furthermore, the medium chain fatty acid administration group had been fed the high-fat feed and forcibly administered with the high-content neutral fats. Then, four weeks after the abdominal aortic aneurysm induction treatment, the rats were dissected.
Note that the abdominal aortic aneurysm was determined to have occurred if the blood vessel at the site where the abdominal aortic aneurysm induction treatment was performed dilated to twice or more its original thickness.
Next, test results obtained by using tricaprin (an ester of three decanoic acids and glycerol) and tricaprylin (an ester of three octanoic acids of C8 and glycerol) as the medium chain fatty acid is shown. The animal model preparation method is the same as that in Example 1. A group in which tricaprin (C10) was given is referred to as a tricaprin administration group and a group in which tricaprylin (C8) was given is referred to as a tricaprylin administration group.
Twenty-three, eleven, and eighteen model animals were prepared as a control group, the tricaprylin administration group, and the tricaprin administration group, respectively.

In data set [2] the test system is abdominal aortic aneurysm. The data set is described as follows: Regression of established abdominal aortic aneurysm, administration from Day 7 (Example 3). The class given is in vivo, rat. How it is done: SD-male rats of 4 weeks old (70 to 90 G) were used. The rats were subjected to the above-described abdominal aortic aneurysm induction treatment. On Day 7, the abdomen of the rat was opened to confirm the occurrence of an abdominal aortic aneurysm, the vessel diameter was measured, and then the abdomen was closed. Subsequently, a control group was fed normal feed and water, while a tricaprin administration group was fed tricaprin in an amount of 1,145 MG/KG/day in addition to the normal feed.
Seven days after the abdominal closure (Day 14 after the abdominal aortic aneurysm induction treatment), the abdomen was opened again, and the blood vessel diameter was measured. Some rats of the control group were not subjected to laparotomy on Day 14 and continued to be fed normal feed and water. The amount of the neutral fats in the blood vessel, the amount of lipids in the blood, the blood glucose level, and the body weight were measured from the day when the abdominal aortic aneurysm induction treatment was performed.
FIGS. 3(A), 3(B), and 3(C) show the control group (depicted as “CONTROL”), and FIGS. 3(D), 3(E), and 3(F) show the tricaprin administration group (depicted as “C10-TG”).
Photographs under “DAY 0” are photographs taken when the abdominal aortic aneurysm induction treatment was performed (FIG. 3(A) and FIG. 3(D)). […]

Where [3] appears, read: Example 2, number of rats (tricaprylin 11, tricaprin 18 animals).
The mark [4] stands for this setting: Example 2, number of rats (tricaprylin 11, tricaprin 18 animals), dilated to twice or more original thickness.

Regarding `CCCCCCCC(=O)OCC(COC(=O)CCCCCCC)OC(=O)CCCCCCC` [Tricaprylin, tricaprylin], in data set [1] (until Day 26 after induction treatment, control declined on Day 17), the Survival rate came to 100%. Further, the “Diameter of the aorta in the abdominal aortic aneurysm induction part” value in data set [1] is given as “about 3.5 MM”. Further, in data set [1] (Example 2), the “Rupture rate of abdominal aortic aneurysm” value was 33.3%, the “Rupture confirmed (abdominal aortic aneurysm)” value is recorded as 1 and the “Rupture not confirmed (abdominal aortic aneurysm)” value is reported as 2. Also, the “Frequency of occurrence of abdominal aortic aneurysm” value in data set [1] (Example 2, control group 30.4) was determined as 27.3%. Moreover, the “Occurrence not confirmed (abdominal aortic aneurysm)” value in data set [1] (setting [3]) is listed as 8. Further, in data set [1] (setting [4]), the “Occurrence confirmed (abdominal aortic aneurysm)” value came to 3.
For the compound `CCCCCCCCCC(=O)OCC(COC(=O)CCCCCCCCC)OC(=O)CCCCCCCCC` [Tricaprin, tricaprin], the Maximum aneurysm diameter in data set [2] (Day 14, 1,145 MG/KG/day from Day 7, 2.79 MM on Day 7 before administration, control 2.81 to 3.59 MM) is 1.89 MM. In data set [2] (Example 3, measured from the day of induction treatment), the “Weight gain rate versus control group” value is on record as “no difference”. Moreover, the “Frequency of occurrence of abdominal aortic aneurysm” value in data set [1] (Example 1, 1,145 MG/KG body-weight/day, control group 38.9) stood at 12.5%; in data set [1] (Example 2, control group 30.4) it was 5.6%. Besides, the “Rupture rate of abdominal aortic aneurysm” value in data set [1] (Example 1) and in data set [1] (Example 2) was 0% throughout. In addition, the “Rupture confirmed (abdominal aortic aneurysm)” value in data set [1] (Example 1) and in data set [1] (Example 2) was 0 each time. Besides, the “Rupture not confirmed (abdominal aortic aneurysm)” value in data set [1] (Example 1) and in data set [1] (Example 2) was 1 throughout. Further, the “Occurrence not confirmed (abdominal aortic aneurysm)” value in data set [1] (Example 1, number of rats of 8, 1,145 MG/KG body-weight/day forced administration, high-fat feed, dissected four weeks after induction) was determined as 7; in data set [1] (setting [3]), 17. Besides, the “Occurrence confirmed (abdominal aortic aneurysm)” value in data set [1] (Example 1, number of rats of 8, vessel dilated to twice or more its original thickness, 1,145 MG/KG body-weight/day) was 1; in data set [1] (setting [4]), 1. The Survival rate in data set [1] (during the test period) is 100%. Further, the “Diameter of the aorta in the abdominal aortic aneurysm induction part” value in data set [1] is listed as “about 2.2 MM”.
